Key:
[1] = biological target: T1, COX-2 enzyme (Homo sapiens, UniProt P35354); assay: biochemical; settings: for IC50: mean of two values, enzyme incubated with inhibitor 2 min, pH 8.0, 25 °C, arachidonic acid substrate, absorbance 590 nm; for COX-2 S.I. (in-vitro COX-2 selectivity index, COX-1/COX-2): ratio IC50 COX-1 / IC50 COX-2
T1 construct: purchased Cayman 701050
T1 sequence (P35354 18-604): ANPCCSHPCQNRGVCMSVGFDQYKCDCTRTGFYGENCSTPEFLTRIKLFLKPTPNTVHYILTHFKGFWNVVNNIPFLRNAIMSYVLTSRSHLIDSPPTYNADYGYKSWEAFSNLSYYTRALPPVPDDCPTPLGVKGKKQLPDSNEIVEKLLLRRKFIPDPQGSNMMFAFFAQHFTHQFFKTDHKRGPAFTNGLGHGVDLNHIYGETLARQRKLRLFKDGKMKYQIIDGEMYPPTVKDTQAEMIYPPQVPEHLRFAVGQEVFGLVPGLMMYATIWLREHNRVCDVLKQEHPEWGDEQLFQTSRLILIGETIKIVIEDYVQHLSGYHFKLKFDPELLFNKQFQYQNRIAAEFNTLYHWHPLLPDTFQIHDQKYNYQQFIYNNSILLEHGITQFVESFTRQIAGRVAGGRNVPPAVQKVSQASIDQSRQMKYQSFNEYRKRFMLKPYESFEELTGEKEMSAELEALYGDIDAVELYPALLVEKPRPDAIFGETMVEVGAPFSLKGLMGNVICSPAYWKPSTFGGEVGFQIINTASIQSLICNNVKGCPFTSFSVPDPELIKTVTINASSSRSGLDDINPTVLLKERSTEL
Protocol: (§1) All test samples were dissolved in DMSO and absorbance was read at 590 nm. The IC50 amounts of the novel compounds were analyzed using nonlinear regression with Dos-response inhibition parameter by the activity base software package (Program Prism, Graph Pad, SanDiego, CA).

[2] = biological target: T2, COX-1 enzyme (Ovis aries, UniProt P05979); assay: biochemical; settings: mean of two values; enzyme incubated with inhibitor 2 min, pH 8.0, 25 °C; arachidonic acid substrate; absorbance 590 nm
T2 construct: purchased Cayman 701050
T2 sequence (P05979 25-600): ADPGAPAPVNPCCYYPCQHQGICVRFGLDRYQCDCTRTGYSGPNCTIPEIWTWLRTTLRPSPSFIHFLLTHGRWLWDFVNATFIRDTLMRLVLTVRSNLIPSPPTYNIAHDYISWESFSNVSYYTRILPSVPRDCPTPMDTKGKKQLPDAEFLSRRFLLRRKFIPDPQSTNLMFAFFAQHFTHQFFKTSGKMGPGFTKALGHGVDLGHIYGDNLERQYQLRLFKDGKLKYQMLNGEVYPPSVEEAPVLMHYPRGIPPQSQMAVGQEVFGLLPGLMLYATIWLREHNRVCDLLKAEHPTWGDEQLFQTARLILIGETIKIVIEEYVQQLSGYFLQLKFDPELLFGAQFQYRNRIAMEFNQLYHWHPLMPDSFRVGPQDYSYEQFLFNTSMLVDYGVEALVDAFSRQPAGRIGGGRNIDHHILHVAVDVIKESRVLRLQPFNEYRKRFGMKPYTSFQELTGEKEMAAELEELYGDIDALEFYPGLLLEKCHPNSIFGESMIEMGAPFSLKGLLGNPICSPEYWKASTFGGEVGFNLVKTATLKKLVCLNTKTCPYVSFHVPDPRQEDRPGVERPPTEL
Protocol: as §1

| Structure (SMILES) | IC50 [1] [µM] | COX-2 S.I. (in-vitro COX-2 selectivity index, COX-1/COX-2) [1] | IC50 [2] [µM] | melting point [°C] |
| --- | --- | --- | --- | --- |
| CS(=O)(=O)c1ncc(CNc2ccc([N+](=O)[O-])cc2)n1Cc1ccccc1 [Compound 5d, N-((1-benzyl-2-(methylsulfonyl)-1H-imidazol-5-yl)methyl)-4-nitrobenzamine] | 3 | 26 | 78 | 177 |
| COc1ccc(NCc2cnc(S(C)(=O)=O)n2Cc2ccccc2)cc1 [Compound 5b, N-((1-benzyl-2-(methylsulfonyl)-1H-imidazol-5-yl)methyl)-4-methoxybenzamine] | 0.71 | 115 | 82 | 152 |
| CS(=O)(=O)c1ncc(CNc2ccccc2)n1Cc1ccccc1 [Compound 5a, N-((1-benzyl-2-(methylsulfonyl)-1H-imidazol-5-yl)methyl)benzamine] | 3.2 | 27 | 87 | 114 to 115 |
| CS(=O)(=O)c1ncc(CNc2ccc(Br)cc2)n1Cc1ccccc1 [Compound 5c, N-((1-benzyl-2-(methylsulfonyl)-1H-imidazol-5-yl)methyl)-4-bromobenzamine] | 2.8 | 28 | 78 | 155 |
| CS(=O)(=O)c1ncc(CNc2ccc(Cl)cc2)n1Cc1ccccc1 [Compound 5e, N-((1-benzyl-2-(methylsulfonyl)-1H-imidazol-5-yl)methyl)-4-chlorobenzamine] | 3.6 | 38 | 138 | 142 |
